Measured values published in PMC4076017 (ACS Chemical Biology, 2014).
“And” between values parts separate entries of the source, which are not always exact repeats. Identical values can stand only once.

What was measured:
[1] = target: T1, BaDHPS (Bacillus anthracis, UniProt Q81VW8); experiment: biochemical
[2] = target: T2, YpDHPS (Yersinia pestis, UniProt A0A2S9PLG4); experiment: biochemical
[3] = target: T3, SaDHPS (Staphylococcus aureus, UniProt O05701); experiment: DHPS enzyme inhibition assay; assay type: biochemical
T3 sequence (O05701 whole entry): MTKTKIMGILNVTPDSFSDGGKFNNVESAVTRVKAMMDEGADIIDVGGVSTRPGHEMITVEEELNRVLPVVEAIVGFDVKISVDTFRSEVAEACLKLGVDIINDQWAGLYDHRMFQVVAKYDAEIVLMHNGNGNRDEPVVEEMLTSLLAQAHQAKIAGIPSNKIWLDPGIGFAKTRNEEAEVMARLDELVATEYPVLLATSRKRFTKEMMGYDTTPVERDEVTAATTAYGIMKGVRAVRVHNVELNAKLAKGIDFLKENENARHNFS

[4] = target: T1, BaDHPS; experiment: biochemical; assay type: binding
[5] = target: T1, BaDHPS; assay type: biochemical
[6] = target: T2, YpDHPS; assay type: biochemical
[7] = target: T3, SaDHPS; experiment: Michaelis-Menten kinetics in the presence of compound 11; assay type: biochemical; conditions: pABA 0 to 10 μM
[8] = Antimicrobial activity; assay type: cell-based
[9] = Aqueous solubility; assay type: physicochemical
[10] = LC-MS stability in conditions that recapitulate the crystallization conditions; assay type: physicochemical; conditions: conditions that recapitulate the crystallization conditions (pH and time)

T2 sequence (A0A2S9PLG4 1-277): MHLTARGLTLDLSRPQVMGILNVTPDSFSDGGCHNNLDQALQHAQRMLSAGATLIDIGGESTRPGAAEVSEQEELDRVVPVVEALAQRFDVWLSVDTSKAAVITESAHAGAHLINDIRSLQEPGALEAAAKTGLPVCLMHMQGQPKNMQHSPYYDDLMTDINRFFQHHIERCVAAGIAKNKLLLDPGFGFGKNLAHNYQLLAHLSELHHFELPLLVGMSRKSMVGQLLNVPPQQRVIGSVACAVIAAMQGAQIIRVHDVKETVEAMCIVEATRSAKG
T1 sequence (Q81VW8 1-280): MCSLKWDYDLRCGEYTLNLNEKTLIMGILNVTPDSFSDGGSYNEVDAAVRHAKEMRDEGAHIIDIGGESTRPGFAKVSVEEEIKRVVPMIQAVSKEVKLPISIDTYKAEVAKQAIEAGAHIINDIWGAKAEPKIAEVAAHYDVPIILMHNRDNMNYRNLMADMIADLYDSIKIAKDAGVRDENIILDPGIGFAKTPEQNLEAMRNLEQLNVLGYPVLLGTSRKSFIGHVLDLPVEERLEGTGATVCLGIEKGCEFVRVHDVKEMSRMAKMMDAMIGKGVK

## FC(F)(F)c1ccc(/C=N/Cc2ccc(C(F)(F)F)cc2)cc1 [Compound 11, (E)-N-(4-(Trifluoromethyl)benzylidene)-1-(4-(trifluoromethyl)phenyl) Methanamine]
[1]
  IC50: 50 µM
[1]; read-out: inhibition of BaDHPS
  inhibition at 250 µM: 100%
[2]
  IC50: 31 µM
[2]; read-out: inhibition of YpDHPS
  inhibition at 250 µM: 100%
[3]
  IC50: 17 µM
[3]; read-out: inhibition of SaDHPS
  inhibition at 250 µM: 100%
[4]
  Kd: 130 ± 1 µM
  increase in binding affinity of pABA to DHPS in the presence of 11: 2 fold
[5]
  Kmobs: 1.0 µM and 0.74 µM
  Vmaxobs: 106.7 nM/min and 70.81 nM/min
[6]
  Kmobs: 1.8 µM and 1.2 µM
[7]; 50 μM compd 11, DHPP 20 μM
  Kmobs: 2.7 µM
  Vmaxobs: 211.2 nM/min
[7]; 100 μM compd 11, DHPP 20 μM
  Kmobs: 0.38 µM
  Vmaxobs: 31.19 nM/min
[8]
  antimicrobial activity: lacks antimicrobial activity
[9]
  aqueous solubility: limited aqueous solubility
[10]
  stability by liquid chromatography-mass spectrometric analysis: stable
